# Measurements published in ChEMBL document CHEMBL5678804 (Cancer Cell, 2011).
# Columns and labels:
# Ephrin type-A receptor 6 = Ephrin type-A receptor 6 (Homo sapiens, UniProt Q9UF33); assay: Inhibition of human wild type EPHA6 using PolyEY as substrate preincubated for 2 hrs followed by ATP addition and measured every 2 mins for […] by spectrophotometric analysis
# [1] = biological target: Platelet-derived growth factor receptor alpha (Homo sapiens, UniProt P16234); assay: Inhibition of human wild type PDGFR alpha using Poly(Ala,Glu,Lys,Tyr)6:2:5:1 as substrate preincubated for 2 hrs followed by ATP addition and measured every 2 mins for […] by spectrophotometric analysis
# [2] = biological target: MAP kinase-interacting serine/threonine-protein kinase 2 (Homo sapiens, UniProt Q9HBH9); assay: Inhibition of human wild type MNK2 using RB-S6P as substrate preincubated for 2 hrs followed by ATP addition and measured every 2 mins for […] by spectrophotometric analysis
# Chain of MAP kinase-interacting serine/threonine-protein kinase 2 (Q9HBH9 whole entry): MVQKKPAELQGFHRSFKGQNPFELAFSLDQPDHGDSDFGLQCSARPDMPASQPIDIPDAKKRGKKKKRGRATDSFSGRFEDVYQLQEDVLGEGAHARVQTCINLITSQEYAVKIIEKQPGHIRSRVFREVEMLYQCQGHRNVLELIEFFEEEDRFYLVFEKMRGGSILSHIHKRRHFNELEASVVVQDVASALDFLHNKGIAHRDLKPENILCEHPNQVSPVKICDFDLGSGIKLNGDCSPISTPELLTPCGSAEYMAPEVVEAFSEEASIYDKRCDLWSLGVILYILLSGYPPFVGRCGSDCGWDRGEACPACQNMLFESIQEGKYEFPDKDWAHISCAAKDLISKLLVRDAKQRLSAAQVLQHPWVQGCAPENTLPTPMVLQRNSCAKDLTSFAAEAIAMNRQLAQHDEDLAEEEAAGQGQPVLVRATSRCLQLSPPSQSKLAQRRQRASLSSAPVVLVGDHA
# [3] = biological target: Mitogen-activated protein kinase 14 (Homo sapiens, UniProt Q16539); assay: Inhibition of human wild type p38 alpha using ATF2 as substrate preincubated for 2 hrs followed by ATP addition and measured every 2 mins for […] by spectrophotometric analysis
# [4] = biological target: Mitogen-activated protein kinase 11 (Homo sapiens, UniProt Q15759); assay: Inhibition of human wild type p38 beta using ATF2 as substrate preincubated for 2 hrs followed by ATP addition and measured every 2 mins for […] by spectrophotometric analysis
# [5] = biological target: Activin receptor type-1-like (Homo sapiens, UniProt P37023); assay: Inhibition of human wild type ALK1 using Casein as substrate preincubated for 2 hrs followed by ATP addition and measured every 2 mins for […] by spectrophotometric analysis
# [6] = biological target: Calcium/calmodulin-dependent protein kinase type 1 (Homo sapiens, UniProt Q14012); assay: Inhibition of human CAMK1alpha preincubated for 2 hrs followed by ATP addition and measured every 2 mins for […] by spectrophotometric analysis
# [7] = biological target: Serine/threonine-protein kinase Chk1 (Homo sapiens, UniProt O14757); assay: Inhibition of human wild type CHK1 using RBER-CHKtide as substrate preincubated for 2 hrs followed by ATP addition and measured every 2 mins for […] by spectrophotometric analysis
# [8] = biological target: Serine/threonine-protein kinase DCLK2 (Homo sapiens, UniProt Q8N568); assay: Inhibition of human wild type DCamKL2 using RBER-CHKtide as substrate preincubated for 2 hrs followed by ATP addition and measured every 2 mins for […] by spectrophotometric analysis
# Chain of Serine/threonine-protein kinase DCLK2 (Q8N568 whole entry): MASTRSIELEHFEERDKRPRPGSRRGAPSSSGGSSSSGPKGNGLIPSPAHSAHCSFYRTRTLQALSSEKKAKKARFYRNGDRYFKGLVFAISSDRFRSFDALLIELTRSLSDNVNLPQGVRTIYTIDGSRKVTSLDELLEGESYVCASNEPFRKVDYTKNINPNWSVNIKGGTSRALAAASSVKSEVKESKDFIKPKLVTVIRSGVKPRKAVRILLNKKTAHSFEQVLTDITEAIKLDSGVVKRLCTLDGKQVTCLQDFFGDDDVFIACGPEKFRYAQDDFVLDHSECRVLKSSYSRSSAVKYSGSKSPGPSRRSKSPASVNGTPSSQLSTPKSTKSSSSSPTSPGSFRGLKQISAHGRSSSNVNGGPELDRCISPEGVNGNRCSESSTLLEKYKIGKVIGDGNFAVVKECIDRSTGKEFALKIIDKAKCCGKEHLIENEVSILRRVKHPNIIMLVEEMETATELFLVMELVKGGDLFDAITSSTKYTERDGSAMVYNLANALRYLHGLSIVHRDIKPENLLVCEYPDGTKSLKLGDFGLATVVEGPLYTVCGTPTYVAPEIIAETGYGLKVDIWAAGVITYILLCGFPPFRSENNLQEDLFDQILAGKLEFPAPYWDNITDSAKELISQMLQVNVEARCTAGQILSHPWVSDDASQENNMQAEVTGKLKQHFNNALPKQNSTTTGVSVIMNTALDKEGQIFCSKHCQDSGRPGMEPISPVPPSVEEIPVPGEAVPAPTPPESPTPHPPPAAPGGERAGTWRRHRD
# [9] = biological target: Dual specificity tyrosine-phosphorylation-regulated kinase 1A (Homo sapiens, UniProt Q13627); assay: Inhibition of human wild type DYRK1 using RBER-CHKtide as substrate preincubated for 2 hrs followed by ATP addition and measured every 2 mins for […] by spectrophotometric analysis
# [10] = biological target: Homeodomain-interacting protein kinase 1 (Homo sapiens, UniProt Q86Z02); assay: Inhibition of human wild type HIPK1 using RBER-CHKtide as substrate preincubated for 2 hrs followed by ATP addition and measured every 2 mins for […] by spectrophotometric analysis
# [11] = biological target: Insulin-like growth factor 1 receptor (Homo sapiens, UniProt P08069); assay: Inhibition of human wild type IGF1R using PolyEY as substrate preincubated for 2 hrs followed by ATP addition and measured every 2 mins for […] by spectrophotometric analysis
# [12] = biological target: Insulin receptor-related protein (Homo sapiens, UniProt P14616); assay: Inhibition of human wild type IRR using Poly(Ala,Glu,Lys,Tyr)6:2:5:1 as substrate preincubated for 2 hrs followed by ATP addition and measured every 2 mins for […] by spectrophotometric analysis
# Chain of Insulin receptor-related protein (P14616 27-742 limits assumed): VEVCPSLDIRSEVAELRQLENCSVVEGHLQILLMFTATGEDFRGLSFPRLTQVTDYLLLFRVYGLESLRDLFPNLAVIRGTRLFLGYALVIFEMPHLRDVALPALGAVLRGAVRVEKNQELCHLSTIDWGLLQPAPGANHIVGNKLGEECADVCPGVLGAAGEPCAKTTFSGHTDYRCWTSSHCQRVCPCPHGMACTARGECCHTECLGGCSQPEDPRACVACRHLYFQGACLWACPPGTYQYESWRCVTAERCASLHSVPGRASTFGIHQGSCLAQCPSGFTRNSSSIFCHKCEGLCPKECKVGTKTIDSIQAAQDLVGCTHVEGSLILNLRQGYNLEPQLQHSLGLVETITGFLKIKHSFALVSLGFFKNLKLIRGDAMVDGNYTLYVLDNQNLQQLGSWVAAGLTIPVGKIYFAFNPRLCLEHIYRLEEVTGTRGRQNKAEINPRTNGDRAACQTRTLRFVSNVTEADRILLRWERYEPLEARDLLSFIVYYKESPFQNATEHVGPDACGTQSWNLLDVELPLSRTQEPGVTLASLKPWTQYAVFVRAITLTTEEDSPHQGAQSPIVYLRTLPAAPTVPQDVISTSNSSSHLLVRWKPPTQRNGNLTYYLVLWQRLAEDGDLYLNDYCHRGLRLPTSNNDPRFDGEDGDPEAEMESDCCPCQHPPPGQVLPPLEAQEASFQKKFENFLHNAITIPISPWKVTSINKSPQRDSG
# Chain of Insulin receptor-related protein (P14616 747-1297 limits assumed): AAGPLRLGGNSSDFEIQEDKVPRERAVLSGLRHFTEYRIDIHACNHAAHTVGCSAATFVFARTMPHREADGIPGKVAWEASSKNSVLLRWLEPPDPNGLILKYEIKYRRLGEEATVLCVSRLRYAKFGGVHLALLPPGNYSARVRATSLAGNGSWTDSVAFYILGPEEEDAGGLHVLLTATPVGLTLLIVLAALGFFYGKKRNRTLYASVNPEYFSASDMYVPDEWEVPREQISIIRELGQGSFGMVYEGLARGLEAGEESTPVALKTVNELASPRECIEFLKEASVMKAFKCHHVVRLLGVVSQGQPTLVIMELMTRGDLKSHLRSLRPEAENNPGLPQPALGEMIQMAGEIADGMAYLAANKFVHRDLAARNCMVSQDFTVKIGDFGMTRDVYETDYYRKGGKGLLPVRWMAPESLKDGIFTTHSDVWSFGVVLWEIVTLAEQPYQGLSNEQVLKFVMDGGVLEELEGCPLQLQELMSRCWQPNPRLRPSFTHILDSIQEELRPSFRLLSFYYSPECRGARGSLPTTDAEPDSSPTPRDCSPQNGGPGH
# [13] = biological target: Tyrosine-protein kinase JAK2 (Homo sapiens, UniProt O60674); assay: Inhibition of human wild type JAK2 using Poly(Ala,Glu,Lys,Tyr)6:2:5:1 as substrate preincubated for 2 hrs followed by ATP addition and measured every 2 mins for […] by spectrophotometric analysis
# Chain of Tyrosine-protein kinase JAK2 (O60674 whole entry): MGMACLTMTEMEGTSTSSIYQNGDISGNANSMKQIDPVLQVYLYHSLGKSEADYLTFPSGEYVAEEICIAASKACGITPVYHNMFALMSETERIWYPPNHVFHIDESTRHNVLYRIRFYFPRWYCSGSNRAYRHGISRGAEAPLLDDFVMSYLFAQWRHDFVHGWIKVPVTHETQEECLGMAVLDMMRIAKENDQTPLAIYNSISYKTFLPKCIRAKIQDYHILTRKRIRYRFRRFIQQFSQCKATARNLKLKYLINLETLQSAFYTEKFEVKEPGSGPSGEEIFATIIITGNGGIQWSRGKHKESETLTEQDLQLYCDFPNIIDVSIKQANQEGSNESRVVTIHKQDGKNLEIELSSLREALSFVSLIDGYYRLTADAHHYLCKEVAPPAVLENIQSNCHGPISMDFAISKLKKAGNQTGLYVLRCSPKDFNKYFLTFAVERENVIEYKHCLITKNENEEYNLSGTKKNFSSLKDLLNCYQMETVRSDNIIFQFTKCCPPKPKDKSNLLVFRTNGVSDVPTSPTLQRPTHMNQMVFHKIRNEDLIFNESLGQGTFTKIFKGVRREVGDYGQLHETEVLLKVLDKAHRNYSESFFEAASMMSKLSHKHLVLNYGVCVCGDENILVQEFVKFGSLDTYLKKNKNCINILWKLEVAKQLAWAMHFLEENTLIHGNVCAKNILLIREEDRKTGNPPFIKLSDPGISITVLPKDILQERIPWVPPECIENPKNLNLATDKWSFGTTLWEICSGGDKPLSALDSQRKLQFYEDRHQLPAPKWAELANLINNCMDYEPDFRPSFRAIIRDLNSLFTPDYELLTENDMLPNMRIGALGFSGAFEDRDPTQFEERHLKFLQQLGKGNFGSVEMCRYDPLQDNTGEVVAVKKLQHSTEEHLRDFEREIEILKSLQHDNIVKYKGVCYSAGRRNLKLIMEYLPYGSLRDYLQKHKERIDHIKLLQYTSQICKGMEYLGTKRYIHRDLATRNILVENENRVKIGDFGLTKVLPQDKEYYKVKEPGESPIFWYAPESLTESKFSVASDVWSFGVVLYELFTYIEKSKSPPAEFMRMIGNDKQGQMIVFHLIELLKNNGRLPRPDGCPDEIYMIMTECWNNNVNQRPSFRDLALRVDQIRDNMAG
# [14] = biological target: Tyrosine-protein kinase JAK3 (Homo sapiens, UniProt P52333); assay: Inhibition of human wild type JAK3 using Poly(Ala,Glu,Lys,Tyr)6:2:5:1 as substrate preincubated for 2 hrs followed by ATP addition and measured every 2 mins for […] by spectrophotometric analysis
# [15] = biological target: Serine/threonine-protein kinase STK11 (Homo sapiens, UniProt Q15831); assay: Inhibition of human wild type LKB1 using RB-CTF as substrate preincubated for 2 hrs followed by ATP addition and measured every 2 mins for […] by spectrophotometric analysis
# Chain of Serine/threonine-protein kinase STK11 (Q15831 whole entry): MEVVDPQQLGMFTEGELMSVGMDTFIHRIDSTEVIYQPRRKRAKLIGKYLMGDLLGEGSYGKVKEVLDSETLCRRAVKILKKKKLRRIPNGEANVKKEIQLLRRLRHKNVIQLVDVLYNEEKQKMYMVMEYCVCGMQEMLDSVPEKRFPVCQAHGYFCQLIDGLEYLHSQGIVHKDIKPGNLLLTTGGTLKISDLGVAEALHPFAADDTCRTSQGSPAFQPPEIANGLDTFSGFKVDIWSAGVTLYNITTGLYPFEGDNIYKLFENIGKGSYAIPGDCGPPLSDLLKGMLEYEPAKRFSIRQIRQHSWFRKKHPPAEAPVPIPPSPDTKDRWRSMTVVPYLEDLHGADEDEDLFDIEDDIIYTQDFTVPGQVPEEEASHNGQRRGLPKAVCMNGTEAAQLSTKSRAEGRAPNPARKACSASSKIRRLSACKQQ
# [16] = biological target: Serine/threonine-protein kinase MARK1 (Homo sapiens, UniProt Q9P0L2); assay: Inhibition of human wild type MARK1 using RBER-CHKtide as substrate preincubated for 2 hrs followed by ATP addition and measured every 2 mins for […] by spectrophotometric analysis
# [17] = biological target: MAP kinase-activated protein kinase 2 (Homo sapiens, UniProt P49137); assay: Inhibition of human MK2 preincubated for 2 hrs followed by ATP addition and measured every 2 mins for […] by spectrophotometric analysis
# [18] = biological target: Myosin light chain kinase (Homo sapiens, UniProt Q32MK0); assay: Inhibition of human wild type MLCK using RB-S6P as substrate preincubated for 2 hrs followed by ATP addition and measured every 2 mins for […] by spectrophotometric analysis
# [19] = biological target: Serine/threonine-protein kinase MRCK alpha (Homo sapiens, UniProt Q5VT25); assay: Inhibition of human wild type MRCK alpha using RB-S6P as substrate preincubated for 2 hrs followed by ATP addition and measured every 2 mins for […] by spectrophotometric analysis
# [20] = biological target: Ribosomal protein S6 kinase alpha-4 (Homo sapiens, UniProt O75676); assay: Inhibition of human wild type MSK2 using RBER-CHKtide as substrate preincubated for 2 hrs followed by ATP addition and measured every 2 mins for […] by spectrophotometric analysis
# Chain of Ribosomal protein S6 kinase alpha-4 (O75676 whole entry): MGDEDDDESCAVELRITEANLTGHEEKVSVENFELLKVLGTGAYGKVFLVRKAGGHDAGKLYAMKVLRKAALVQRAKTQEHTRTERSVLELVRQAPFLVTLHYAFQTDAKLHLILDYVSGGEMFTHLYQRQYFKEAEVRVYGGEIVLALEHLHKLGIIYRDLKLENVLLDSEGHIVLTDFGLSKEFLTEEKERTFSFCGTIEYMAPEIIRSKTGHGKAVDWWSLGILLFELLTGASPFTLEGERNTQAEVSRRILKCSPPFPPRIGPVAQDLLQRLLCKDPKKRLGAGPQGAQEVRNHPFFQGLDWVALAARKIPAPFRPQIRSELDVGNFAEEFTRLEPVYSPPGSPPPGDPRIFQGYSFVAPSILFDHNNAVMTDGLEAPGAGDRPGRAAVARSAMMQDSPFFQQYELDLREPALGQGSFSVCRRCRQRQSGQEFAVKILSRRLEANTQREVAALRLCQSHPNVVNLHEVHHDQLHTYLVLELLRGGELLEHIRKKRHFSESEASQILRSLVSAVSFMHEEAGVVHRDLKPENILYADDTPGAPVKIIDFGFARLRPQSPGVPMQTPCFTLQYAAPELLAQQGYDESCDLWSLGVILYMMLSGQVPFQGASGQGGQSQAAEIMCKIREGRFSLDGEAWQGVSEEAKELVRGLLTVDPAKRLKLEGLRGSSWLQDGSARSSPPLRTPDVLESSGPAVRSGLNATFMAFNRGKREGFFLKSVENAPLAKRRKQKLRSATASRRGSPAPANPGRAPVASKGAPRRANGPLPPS
# [21] = biological target: Serine/threonine-protein kinase NLK (Homo sapiens, UniProt Q9UBE8); assay: Inhibition of human wild type NLK using RBER-GSK3([…]-[…]) as substrate preincubated for 2 hrs followed by ATP addition and measured every 2 mins for […] by spectrophotometric analysis
# [22] = biological target: Serine/threonine-protein kinase pim-2 (Homo sapiens, UniProt Q9P1W9); assay: Inhibition of human wild type PIM2 using RBER-GSK3(14to 27) as substrate preincubated for 2 hrs followed by ATP addition and measured every 2 mins for […] by spectrophotometric analysis
# [23] = Inhibition of human wild type PKA using bio-4xCHKT as substrate preincubated for 2 hrs followed by ATP addition and measured every 2 mins for […] by spectrophotometric analysis
# [24] = biological target: Serine/threonine-protein kinase D2 (Homo sapiens, UniProt Q9BZL6); assay: Inhibition of human wild type PKD2 using RBER-CHKtide as substrate preincubated for 2 hrs followed by ATP addition and measured every 2 mins for […] by spectrophotometric analysis
# [25] = biological target: cGMP-dependent protein kinase 2 (Homo sapiens, UniProt Q13237); assay: Inhibition of human wild type PKG2 using RBER-GSK3(14to 27) as substrate preincubated for 2 hrs followed by ATP addition and measured every 2 mins for […] by spectrophotometric analysis
# [26] = biological target: Serine/threonine-protein kinase Sgk1 (Homo sapiens, UniProt O00141); assay: Inhibition of human wild type SGK1 using RBER-GSK3([…] to […]) as substrate preincubated for 2 hrs followed by ATP addition and measured every 2 mins for […] by spectrophotometric analysis
structure (smiles),measurement,setting,value
CNC(=O)c1cc(Oc2ccc(NC(=O)Nc3cc(C(C)(C)C)nn3-c3ccc4ncccc4c3)c(F)c2)ccn1 [REBASTINIB],IC50,Ephrin type-A receptor 6,17 nM
same,IC50,[1],70 nM
same,IC50,[2],400 nM
same,IC50,[3],110 nM
same,IC50,[4],790 nM
same,IC50,[5],> 1000 nM
same,IC50,[6],> 1000 nM
same,IC50,[7],> 1000 nM
same,IC50,[8],> 1000 nM
same,IC50,[9],> 1000 nM
same,IC50,[10],> 1000 nM
same,IC50,[11],> 1000 nM
same,IC50,[12],> 1000 nM
same,IC50,[13],> 1000 nM
same,IC50,[14],> 1000 nM
same,IC50,[15],> 1000 nM
same,IC50,[16],> 1000 nM
same,IC50,[17],> 1000 nM
same,IC50,[18],> 1000 nM
same,IC50,[19],> 1000 nM
same,IC50,[20],> 1000 nM
same,IC50,[21],> 1000 nM
same,IC50,[22],> 1000 nM
same,IC50,[23],> 1000 nM
same,IC50,[24],> 1000 nM
same,IC50,[25],> 1000 nM
same,IC50,[26],> 1000 nM
